# Key:
# [1] = Stability in human liver S9 fraction after 60 mins; assay type: ADME, subcellular; settings: read-out: Stability
# [2] = Stability in rat liver S9 fraction after 60 mins; assay type: ADME, subcellular; settings: read-out: Stability
# [3] = target: Sodium-dependent noradrenaline transporter (Homo sapiens, UniProt P23975); experiment: Inhibition of NET mediated norepinephrine uptake
# [4] = Stability in rat liver microsome after 60 mins; assay type: ADME; settings: liver microsomes, read-out: Stability
# [5] = target: Sodium-dependent serotonin transporter (Homo sapiens, UniProt P31645); experiment: Inhibition of SERT mediated 5-hydroxytryptamine uptake
# Sequence of Sodium-dependent serotonin transporter (P31645 whole entry): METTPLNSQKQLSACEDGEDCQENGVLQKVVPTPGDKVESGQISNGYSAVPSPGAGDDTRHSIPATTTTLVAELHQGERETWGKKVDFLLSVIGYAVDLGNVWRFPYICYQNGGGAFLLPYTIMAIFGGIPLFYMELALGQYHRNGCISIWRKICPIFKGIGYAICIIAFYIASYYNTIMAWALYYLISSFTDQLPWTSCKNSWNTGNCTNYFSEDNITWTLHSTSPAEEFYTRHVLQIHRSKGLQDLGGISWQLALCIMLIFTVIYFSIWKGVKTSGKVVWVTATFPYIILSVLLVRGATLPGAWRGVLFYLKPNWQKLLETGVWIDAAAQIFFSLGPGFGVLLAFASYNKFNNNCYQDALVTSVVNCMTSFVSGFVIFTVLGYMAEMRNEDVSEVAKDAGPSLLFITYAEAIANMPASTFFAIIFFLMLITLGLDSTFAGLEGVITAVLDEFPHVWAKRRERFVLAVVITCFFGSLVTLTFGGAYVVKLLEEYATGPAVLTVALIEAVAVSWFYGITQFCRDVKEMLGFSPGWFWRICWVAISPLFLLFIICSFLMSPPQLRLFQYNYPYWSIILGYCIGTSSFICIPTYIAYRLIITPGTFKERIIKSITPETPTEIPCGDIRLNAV
# [6] = Stability in human liver microsome after 60 mins; assay type: ADME; settings: liver microsomes, read-out: Stability
# [7] = target: Mu-type opioid receptor (Homo sapiens, UniProt P35372); experiment: Binding affinity to mu opioid receptor
# Sequence of Mu-type opioid receptor (P35372 whole entry): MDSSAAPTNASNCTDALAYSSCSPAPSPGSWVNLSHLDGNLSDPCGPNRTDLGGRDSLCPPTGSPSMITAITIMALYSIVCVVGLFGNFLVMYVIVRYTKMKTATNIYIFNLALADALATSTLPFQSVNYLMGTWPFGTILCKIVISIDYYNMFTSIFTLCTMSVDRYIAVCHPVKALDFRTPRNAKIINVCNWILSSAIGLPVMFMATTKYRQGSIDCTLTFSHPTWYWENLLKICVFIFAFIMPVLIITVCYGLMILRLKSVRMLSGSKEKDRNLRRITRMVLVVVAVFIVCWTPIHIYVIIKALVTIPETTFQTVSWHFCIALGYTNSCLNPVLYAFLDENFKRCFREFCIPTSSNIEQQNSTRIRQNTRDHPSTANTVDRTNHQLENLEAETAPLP
# [8] = tested on: Rattus norvegicus; experiment: Analgesic activity in iv dosed Sprague-Dawley rat by tail-flick model of pain; assay type: functional
# [9] = tested on: Rattus norvegicus; experiment: Analgesic activity in iv dosed Sprague-Dawley rat assessed as duration of effect by tail-flick model of pain; assay type: functional
# [10] = tested on: Rattus norvegicus; experiment: Toxicity in iv dosed Sprague-Dawley rat; assay type: organism-based; settings: in vivo
# [11] = Bioavailability in […] dosed Sprague-Dawley rat; assay type: ADME, organism-based; settings: in vivo
# Sequence of Sodium-dependent noradrenaline transporter (P23975 whole entry): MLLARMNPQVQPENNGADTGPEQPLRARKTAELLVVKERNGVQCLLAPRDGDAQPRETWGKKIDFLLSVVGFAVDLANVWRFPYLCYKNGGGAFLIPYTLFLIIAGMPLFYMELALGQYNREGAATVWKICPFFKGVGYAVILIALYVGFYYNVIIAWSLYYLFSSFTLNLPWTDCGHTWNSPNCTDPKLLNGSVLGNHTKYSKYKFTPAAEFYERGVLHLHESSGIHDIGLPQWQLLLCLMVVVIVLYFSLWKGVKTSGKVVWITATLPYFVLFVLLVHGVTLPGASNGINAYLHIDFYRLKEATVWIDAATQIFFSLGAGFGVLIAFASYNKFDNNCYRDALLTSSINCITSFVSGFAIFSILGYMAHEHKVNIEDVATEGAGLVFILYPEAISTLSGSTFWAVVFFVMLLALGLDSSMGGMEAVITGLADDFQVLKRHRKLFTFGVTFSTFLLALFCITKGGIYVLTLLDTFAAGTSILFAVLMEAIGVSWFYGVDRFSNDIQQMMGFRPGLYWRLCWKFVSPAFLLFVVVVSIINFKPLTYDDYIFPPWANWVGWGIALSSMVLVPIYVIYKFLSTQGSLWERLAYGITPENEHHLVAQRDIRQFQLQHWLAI
SMILES,remaining at 1 h [1] [%],remaining at 1 h [2] [%],IC50 [3] [µM],remaining at 1 h [4] [%],IC50 [5] [µM],remaining at 1 h [6] [%],IC50 [7] [µM],ED50 [8] [mg/kg],Time [9] [min],Activity [10],bioavailability [11] [%]
CO[C@]1(c2cccc(C#N)c2)CCCC[C@@H]1CN(C)C,94,83,4.49,69,6.24,89,> 10,,,,
CN(C)C[C@H]1CCCC[C@]1(OCC1CC1)c1cccc(O)c1,,,> 10,,3.67,,0.13,,,,
CNC[C@@H]1CCCC[C@@]1(OC)c1cccc(OC)c1,,,0.898,,,,> 10,3.1,27,,
CCCO[C@]1(c2cccc(OC)c2)CCCC[C@@H]1CN(C)C,,,3.87,,0.025,,7.9,,,,
CNC[C@H]1CCCC[C@]1(OC)c1cccc(OC)c1,,,> 10,,,,> 10,,,Toxic,
COc1cccc([C@@]2(OCCCO)CCCC[C@@H]2CN(C)C)c1,,,3.86,,1.49,,8,,,,
CN(C)C[C@H]1CCCC[C@]1(OCCO)c1cccc(O)c1,,,5.95,,1.5,,0.19,,,,
COc1cccc([C@@]2(OCCO)CCCC[C@@H]2CN(C)C)c1,,,> 10,,> 10,,> 10,,,,
CCCCO[C@]1(c2cccc(OC)c2)CCCC[C@@H]1CN(C)C,10,4,6.69,3,0.11,9,6.49,,,,
CO[C@@]1(c2ccccc2)CCCC[C@H]1CN(C)C,,,1.56,,3.88,,> 10,3.3,13,,
CCCCO[C@]1(c2cccc(O)c2)CCCC[C@@H]1CN(C)C,,,> 10,,2.74,,0.097,,,,
CO[C@]1(c2cccc(O)c2)CCCC[C@@H]1CN(C)C,98,74,0.525,88,10,104,0.056,,,,
CCCO[C@]1(c2cccc(O)c2)CCCC[C@@H]1CN(C)C,,,6.25,,2.8,,0.19,,,,
CCO[C@]1(c2cccc(O)c2)CCCC[C@@H]1CN(C)C,,,3.78,,1.42,,0.13,,,,
CCO[C@]1(c2cccc(OC)c2)CCCC[C@@H]1CN(C)C,,,1.01,,0.181,,> 10,,,,
COc1cccc([C@@]2(OCC3CC3)CCCC[C@@H]2CN(C)C)c1,35,6,3.78,3,0.025,29,7.67,,,,
CNC[C@@H]1CCCC[C@@]1(OC)c1cccc(O)c1,,,9,,1.05,,0.084,,,,
CNCC1CCCCC1(OC)c1cccc(OC)c1 (racemic),76,26,3.87,31,,77,> 10,2.9,,,
COc1cccc([C@@]2(OC)CCCC[C@@H]2CN(C)C)c1 (racemic),85,12,0.161,17,,82,7.87,0.7,20,,11
CN(C)C[C@H]1CCCC[C@]1(O)c1cccc(O)c1 (racemic) [O-DESMETHYL TRAMADOL],,,> 10,,,,,,2,,
COc1cccc(C2(O)CCCCC2CN(C)C)c1 (racemic) [TRAMADOL],95,56,3.86,58,,96,,11.3,69,,36
CO[C@]1(c2ccccc2)CCCC[C@@H]1CN(C)C (stereo in doubt; 14),101,61,3.79,56,2.53,96,4.75,,,,
CNC[C@H]1CCCC[C@]1(OC)c1cccc(O)c1 (stereo in doubt; 23),108,82,2.25,86,6.92,103,0.122,,,,
CNC[C@H]1CCCC[C@]1(OC)c1cccc(O)c1 (stereo in doubt; 26),,,> 10,,5.26,,0.048,,,,
CO[C@]1(c2ccccc2)CCCC[C@@H]1CN(C)C (stereo in doubt; 28),,,1.52,,2.96,,2.59,,,Toxic,

# Reference: ChEMBL document CHEMBL1141623 (Bioorg Med Chem Lett, 2008)
